Square brackets hold non-standard residues; d marks the D form. Peptide text beside a SMILES is read from it. Bip = N[C@@H](Cc1ccc(-c2ccccc2)cc1)C(=O)O; Oic = O=C(O)[C@@H]1C[C@@H]2CCCC[C@@H]2N1; Phe(4-I) = N[C@@H](Cc1ccc(I)cc1)C(=O)O; 1Nal = N[C@@H](Cc1cccc2ccccc12)C(=O)O; 2Nal = N[C@@H](Cc1ccc2ccccc2c1)C(=O)O; hArg = N=C(N)NCCCC[C@H](N)C(=O)O; Tic = O=C(O)[C@@H]1Cc2ccccc2CN1; Cit = NC(=O)NCCC[C@H](N)C(=O)O
biological target: T1, CGRP1 receptor (Homo sapiens, UniProt O60894+Q16602); experiment: in vitro CGRP1 receptor mediated cAMP assay in SK-N-MC cells; type: cell-based; conditions: Table 2A; read-out: IC50
T1 construct: SK-N-MC cells express CRLR and RAMP1, which form CGRP1 receptor; endogenous in cells; host or cells: SK-N-MC human neuroblastoma cells
T1 sequence (Q16602 23-461): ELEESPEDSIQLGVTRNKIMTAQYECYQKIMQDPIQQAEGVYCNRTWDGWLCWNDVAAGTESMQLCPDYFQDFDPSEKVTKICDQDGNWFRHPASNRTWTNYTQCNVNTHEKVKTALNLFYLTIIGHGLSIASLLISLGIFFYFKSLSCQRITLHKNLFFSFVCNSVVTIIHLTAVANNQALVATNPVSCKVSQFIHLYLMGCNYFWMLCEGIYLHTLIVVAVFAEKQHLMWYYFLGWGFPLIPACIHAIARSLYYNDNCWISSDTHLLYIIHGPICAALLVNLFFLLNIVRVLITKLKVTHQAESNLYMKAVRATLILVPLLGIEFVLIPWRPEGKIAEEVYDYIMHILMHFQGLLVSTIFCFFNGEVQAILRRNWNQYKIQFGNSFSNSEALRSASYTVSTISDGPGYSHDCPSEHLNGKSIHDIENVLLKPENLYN
T1 sequence (O60894 27-148): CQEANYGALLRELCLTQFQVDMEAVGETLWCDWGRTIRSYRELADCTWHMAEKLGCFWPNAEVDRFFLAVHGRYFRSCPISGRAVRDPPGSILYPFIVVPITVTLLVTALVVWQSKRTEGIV
Experimental: The in vitro cAMP assay employed a human neuroblastoma-derived cell line (SK-N-MC). SK-N-MC cells express CRLR and RAMP1, which form CGRP1 receptor. CGRP1 receptor is a G-protein coupled receptor linked to the stimulatory G-protein, Gs. […] Briefly, two days before the assay, the cells were plated in 96-well plates in growth medium. On the day of the assay cells were rinsed with PBS followed by the addition of 60 μl of plasma free medium for 15 minutes at room temperature. […] The medium was then removed and the cells were lysed with 100 μl lysis buffer for 30 minutes at 37° C. for 30 minutes. Using a Tropix ELISA kit (Applied Biosystems, Foster City, Calif.), a cAMP-AP conjugate was diluted (1:100) and added (30 μl) to each well of a 96-well ELISA plate. An aliquot of the lysis buffer from the cell plate was then added to the ELISA plate followed by an aliquot of the cAMP antibody. This mixture was incubated for 1 hour at room temperature with gentle shaking. The ELISA plate was then washed 6× with wash buffer followed by the additions of a substrate enhancer. This mixture was incubated for 30 minutes at room temperature and then read on a MicroBeta Jet or EnVision plate reader. The results were analyzed using Prism (GraphPad).

Compound	IC50 [nM]
CC(=O)N[C@@H](CCCCN)C(=O)N[C@@H](Cc1c[nH]c2ccccc12)C(=O)N[C@H](C(=O)N[C@H](C(=O)N[C@@H](Cc1c[nH]cn1)C(=O)N[C@@H](CCCNC(N)=O)C(=O)N[C@@H](CC(C)C)C(=O)N[C@@H](C)C(=O)NCC(=O)N[C@@H](CC(C)C)C(=O)N[C@@H](CC(C)C)C(=O)N[C@@H](CO)C(=O)N[C@@H](CCCNC(N)=O)C(=O)N[C@@H](CO)C(=O)NCC(=O)NCC(=O)N[C@H](C(=O)N[C@H](C(=O)N[C@@H](CCCNC(=N)N)C(=O)N[C@@H](CCCCN)C(=O)N[C@@H](CC(N)=O)C(=O)N[C@@H](Cc1ccccc1)C(=O)N[C@H](C(=O)N1CCC[C@H]1C(=O)N[C@H](C(=O)N[C@@H](CC(=O)O)C(=O)N[C@H](C(=O)NCC(=O)N1CCC[C@H]1C(=O)N[C@@H](CCCCN)C(=O)N[C@@H](C)C(=O)N[C@@H](Cc1ccccc1)C(N)=O)C(C)C)[C@@H](C)O)C(C)C)C(C)C)C(C)C)[C@@H](C)O)C(C)C [compound 128] (Ac-KWVTH[Cit]LAGLLS[Cit]SGGVVRKNFVPTDVGPKAF-NH2)	13
CC(=O)N[C@@H](Cc1c[nH]c2ccccc12)C(=O)N[C@H](C(=O)N[C@H](C(=O)N[C@@H](Cc1cnc[nH]1)C(=O)N[C@@H](CCCNC(N)=O)C(=O)N[C@@H](CC(C)C)C(=O)N[C@@H](C)C(=O)NCC(=O)N[C@@H](CC(C)C)C(=O)N[C@@H](CC(C)C)C(=O)N[C@@H](CO)C(=O)N[C@@H](CCCNC(N)=O)C(=O)N[C@@H](CO)C(=O)NCC(=O)NCC(=O)N[C@H](C(=O)N[C@H](C(=O)N[C@@H](CCCCN=C(N)N)C(=O)N[C@@H](CCCCN)C(=O)N[C@@H](CC(N)=O)C(=O)N[C@@H](Cc1ccccc1)C(=O)N[C@H](C(=O)N1CCC[C@H]1C(=O)N[C@H](C(=O)N[C@@H](CC(=O)O)C(=O)N[C@H](C(=O)NCC(=O)N1CCC[C@H]1C(=O)N1Cc2ccccc2C[C@H]1C(=O)N[C@@H](C)C(=O)N[C@@H](Cc1ccccc1)C(N)=O)C(C)C)[C@@H](C)O)C(C)C)C(C)C)C(C)C)[C@@H](C)O)C(C)C [compound 131] (Ac-WVTH[Cit]LAGLLS[Cit]SGGVV[hArg]KNFVPTDVGP[Tic]AF-NH2)	89.9
CC(=O)N[C@@H](Cc1c[nH]c2ccccc12)C(=O)N[C@H](C(=O)N[C@H](C(=O)N[C@@H](Cc1c[nH]cn1)C(=O)N[C@@H](CCCNC(N)=O)C(=O)N[C@@H](CC(C)C)C(=O)N[C@@H](C)C(=O)NCC(=O)N[C@@H](CC(C)C)C(=O)N[C@@H](CC(C)C)C(=O)N[C@@H](CO)C(=O)N[C@@H](CCCNC(N)=O)C(=O)N[C@@H](CO)C(=O)NCC(=O)NCC(=O)N[C@H](C(=O)N[C@H](C(=O)N[C@@H](CCCCNC(=N)N)C(=O)N[C@@H](CCCCN)C(=O)N[C@@H](CC(N)=O)C(=O)N[C@@H](Cc1ccccc1)C(=O)N[C@H](C(=O)N1[C@H](C(=O)N[C@H](C(=O)N[C@@H](CC(=O)O)C(=O)N[C@H](C(=O)NCC(=O)N2[C@H](C(=O)N[C@@H](Cc3ccccc3)C(=O)N[C@@H](C)C(=O)N[C@@H](Cc3ccc4ccccc4c3)C(N)=O)C[C@@H]3CCCC[C@@H]32)C(C)C)[C@@H](C)O)C[C@@H]2CCCC[C@@H]21)C(C)C)C(C)C)C(C)C)[C@@H](C)O)C(C)C [compound 132] (Ac-WVTH[Cit]LAGLLS[Cit]SGGVV[hArg]KNFV[Oic]TDVG[Oic]FA[2Nal]-NH2)	2.57
CC(=O)N[C@@H](Cc1c[nH]c2ccccc12)C(=O)N[C@H](C(=O)N[C@H](C(=O)N[C@@H](Cc1c[nH]cn1)C(=O)N[C@@H](CCCNC(N)=O)C(=O)N[C@@H](CC(C)C)C(=O)N[C@@H](C)C(=O)NCC(=O)N[C@@H](CC(C)C)C(=O)N[C@@H](CC(C)C)C(=O)N[C@@H](CO)C(=O)N[C@@H](CCCNC(N)=O)C(=O)N[C@@H](CO)C(=O)NCC(=O)NCC(=O)N[C@H](C(=O)N[C@H](C(=O)N[C@@H](CCCCNC(=N)N)C(=O)N[C@@H](CCCCN)C(=O)N[C@@H](CC(N)=O)C(=O)N[C@@H](Cc1ccccc1)C(=O)N[C@H](C(=O)N1[C@H](C(=O)N[C@H](C(=O)N[C@@H](CC(=O)O)C(=O)N[C@H](C(=O)NCC(=O)N2CCC[C@H]2C(=O)N[C@@H](Cc2cccc3ccccc23)C(=O)N[C@@H](C)C(=O)N[C@@H](Cc2ccc3ccccc3c2)C(N)=O)C(C)C)[C@@H](C)O)C[C@@H]2CCCC[C@@H]21)C(C)C)C(C)C)C(C)C)[C@@H](C)O)C(C)C [compound 133] (Ac-WVTH[Cit]LAGLLS[Cit]SGGVV[hArg]KNFV[Oic]TDVGP[1Nal]A[2Nal]-NH2)	2.73
CC(=O)N[C@@H](Cc1c[nH]c2ccccc12)C(=O)N[C@H](C(=O)N[C@H](C(=O)N[C@@H](Cc1c[nH]cn1)C(=O)N[C@@H](CCCNC(N)=O)C(=O)N[C@@H](CC(C)C)C(=O)N[C@@H](C)C(=O)NCC(=O)N[C@@H](CC(C)C)C(=O)N[C@@H](CC(C)C)C(=O)N[C@@H](CO)C(=O)N[C@@H](CCCNC(N)=O)C(=O)N[C@@H](CO)C(=O)NCC(=O)NCC(=O)N[C@H](C(=O)N[C@H](C(=O)N[C@@H](CCCCNC(=N)N)C(=O)N[C@@H](CCCCN)C(=O)N[C@@H](CC(N)=O)C(=O)N[C@@H](Cc1ccccc1)C(=O)N[C@H](C(=O)N1[C@H](C(=O)N[C@H](C(=O)N[C@@H](CC(=O)O)C(=O)N[C@H](C(=O)NCC(=O)N2CCC[C@H]2C(=O)N[C@@H](Cc2ccc(-c3ccccc3)cc2)C(=O)N[C@@H](C)C(=O)N[C@@H](Cc2ccccc2)C(N)=O)C(C)C)[C@@H](C)O)C[C@@H]2CCCC[C@@H]21)C(C)C)C(C)C)C(C)C)[C@@H](C)O)C(C)C [compound 134] (Ac-WVTH[Cit]LAGLLS[Cit]SGGVV[hArg]KNFV[Oic]TDVGP[Bip]AF-NH2)	3.85
CC(=O)N[C@@H](Cc1c[nH]c2ccccc12)C(=O)N[C@H](C(=O)N[C@H](C(=O)N[C@@H](Cc1c[nH]cn1)C(=O)N[C@@H](CCCNC(N)=O)C(=O)N[C@@H](CC(C)C)C(=O)N[C@@H](C)C(=O)NCC(=O)N[C@@H](CC(C)C)C(=O)N[C@@H](CC(C)C)C(=O)N[C@@H](CO)C(=O)N[C@@H](CCCNC(N)=O)C(=O)N[C@@H](CO)C(=O)NCC(=O)NCC(=O)N[C@H](C(=O)N[C@H](C(=O)N[C@@H](CCCCNC(=N)N)C(=O)N[C@@H](CCCCN)C(=O)N[C@@H](CC(N)=O)C(=O)N[C@@H](Cc1ccccc1)C(=O)N[C@H](C(=O)N1[C@H](C(=O)N[C@H](C(=O)N[C@@H](CC(=O)O)C(=O)N[C@H](C(=O)NCC(=O)N2CCC[C@H]2C(=O)N[C@@H](Cc2ccccc2)C(=O)N[C@@H](C)C(=O)N[C@@H](Cc2ccc3ccccc3c2)C(N)=O)C(C)C)[C@@H](C)O)C[C@@H]2CCCC[C@@H]21)C(C)C)C(C)C)C(C)C)[C@@H](C)O)C(C)C [compound 135] (Ac-WVTH[Cit]LAGLLS[Cit]SGGVV[hArg]KNFV[Oic]TDVGPFA[2Nal]-NH2)	3.22
CC(=O)N[C@@H](Cc1c[nH]c2ccccc12)C(=O)N[C@H](C(=O)N[C@H](C(=O)N[C@@H](Cc1c[nH]cn1)C(=O)N[C@@H](CCCNC(N)=O)C(=O)N[C@@H](CC(C)C)C(=O)N[C@@H](C)C(=O)NCC(=O)N[C@@H](CC(C)C)C(=O)N[C@@H](CC(C)C)C(=O)N[C@@H](CO)C(=O)N[C@@H](CCCNC(N)=O)C(=O)N[C@@H](CO)C(=O)NCC(=O)NCC(=O)N[C@H](C(=O)N[C@H](C(=O)N[C@@H](CCCCNC(=N)N)C(=O)N[C@@H](CCCCN)C(=O)N[C@@H](CC(N)=O)C(=O)N[C@@H](Cc1ccc(I)cc1)C(=O)N[C@H](C(=O)N1[C@H](C(=O)N[C@H](C(=O)N[C@@H](CC(=O)O)C(=O)N[C@H](C(=O)NCC(=O)N2CCC[C@H]2C(=O)N[C@@H](Cc2ccc(I)cc2)C(=O)N[C@@H](C)C(=O)N[C@@H](Cc2ccccc2)C(N)=O)C(C)C)[C@@H](C)O)C[C@@H]2CCCC[C@@H]21)C(C)C)C(C)C)C(C)C)[C@@H](C)O)C(C)C [compound 136] (Ac-WVTH[Cit]LAGLLS[Cit]SGGVV[hArg]KN[Phe(4-I)]V[Oic]TDVGP[Phe(4-I)]AF-NH2)	2.34

same assay, conditions: Table 2D; read-out: IC50

Compound	IC50 [nM]
766 (Ac-WVTHRLAGLLSRSGGVVRC(20 kDa MeO‑PEG)NFVPTDVGPFAF-NH2) [compound 766]	4.09
805 (Ac-WVTHRLAGLLSRSGGVVRC(20 kDa MeO‑PEG)NFVPTDVGPFAF-NH2) [compound 805]	1.33

same assay, conditions: Table 3; unconjugated CGRP peptide analogs; n = 2-4; read-out: IC50

Compound	IC50 [nM]
CC(C)C[C@H](NC(=O)CNC(=O)[C@H](C)NC(=O)[C@H](CC(C)C)NC(=O)[C@H](CCCNC(=N)N)NC(=O)[C@H](Cc1cnc[nH]1)NC(=O)[C@@H](NC(=O)[C@@H](NC(=O)[C@@H](N)Cc1c[nH]c2ccccc12)C(C)C)[C@@H](C)O)C(=O)N[C@@H](CC(C)C)C(=O)N[C@@H](CO)C(=O)N[C@@H](CCCNC(=N)N)C(=O)N[C@@H](CO)C(=O)NCC(=O)NCC(=O)N[C@H](C(=O)N[C@H](C(=O)N[C@@H](CCCCN)C(=O)N[C@@H](CC(N)=O)C(=O)N[C@@H](CC(N)=O)C(=O)N[C@@H](Cc1ccccc1)C(=O)N[C@H](C(=O)N1CCC[C@H]1C(=O)N[C@H](C(=O)N[C@@H](CC(N)=O)C(=O)N[C@H](C(=O)NCC(=O)N[C@@H](CO)C(=O)N[C@@H](CCCCN)C(=O)N[C@@H](C)C(=O)N[C@@H](Cc1ccccc1)C(N)=O)C(C)C)[C@@H](C)O)C(C)C)C(C)C)C(C)C [compound 4]	0.64
